Assay results taken from ChEMBL document CHEMBL4130590, “Mtb PKNA/PKNB Dual Inhibition Provides Selectivity Advantages for Inhibitor Design To Minimize Host Kinase Interactions” (ACS Med Chem Lett, 2017).
≈ marks a conversion by molar mass, not a printed value.

How the values were obtained:
[1] = target: T1, Serine/threonine-protein kinase PknB (Mycobacterium tuberculosis, UniProt P9WI81); assay: Inhibition of Mycobacterium tuberculosis PknB (M1 to G279 residues) expressed in Escherichia coli BL21 (DE3) cells using [T-33P]ATP as substrate after 50 mins in presence of GarA by liquid scintillation method
T1 sequence (P9WI81 whole entry): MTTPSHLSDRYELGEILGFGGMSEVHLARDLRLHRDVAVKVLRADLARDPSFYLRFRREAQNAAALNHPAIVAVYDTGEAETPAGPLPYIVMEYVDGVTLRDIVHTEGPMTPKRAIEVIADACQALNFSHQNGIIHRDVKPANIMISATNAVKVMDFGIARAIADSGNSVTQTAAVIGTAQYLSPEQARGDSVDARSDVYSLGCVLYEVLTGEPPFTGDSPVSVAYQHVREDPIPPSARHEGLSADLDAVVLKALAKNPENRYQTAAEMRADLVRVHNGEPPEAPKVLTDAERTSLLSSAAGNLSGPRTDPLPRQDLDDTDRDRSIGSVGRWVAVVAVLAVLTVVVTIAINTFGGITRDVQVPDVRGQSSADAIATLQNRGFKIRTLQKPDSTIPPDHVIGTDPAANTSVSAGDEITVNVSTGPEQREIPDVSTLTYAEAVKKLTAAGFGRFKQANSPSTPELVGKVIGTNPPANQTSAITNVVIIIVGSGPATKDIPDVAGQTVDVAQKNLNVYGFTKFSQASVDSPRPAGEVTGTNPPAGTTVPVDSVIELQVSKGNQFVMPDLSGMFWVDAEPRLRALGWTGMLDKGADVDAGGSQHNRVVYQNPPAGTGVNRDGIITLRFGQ

[2] = target: T2, Serine/threonine-protein kinase PknA (Mycobacterium tuberculosis (strain ATCC 25618 / H37Rv), UniProt P9WI83); assay: Inhibition of Mycobacterium tuberculosis PknA (M1 to A296 residues) expressed in Escherichia coli BL21 (DE3) pLysS cells using [T-33P]ATP as substrate after 120 mins in presence of GarA by liquid scintillation method
T2 sequence (P9WI83 whole entry): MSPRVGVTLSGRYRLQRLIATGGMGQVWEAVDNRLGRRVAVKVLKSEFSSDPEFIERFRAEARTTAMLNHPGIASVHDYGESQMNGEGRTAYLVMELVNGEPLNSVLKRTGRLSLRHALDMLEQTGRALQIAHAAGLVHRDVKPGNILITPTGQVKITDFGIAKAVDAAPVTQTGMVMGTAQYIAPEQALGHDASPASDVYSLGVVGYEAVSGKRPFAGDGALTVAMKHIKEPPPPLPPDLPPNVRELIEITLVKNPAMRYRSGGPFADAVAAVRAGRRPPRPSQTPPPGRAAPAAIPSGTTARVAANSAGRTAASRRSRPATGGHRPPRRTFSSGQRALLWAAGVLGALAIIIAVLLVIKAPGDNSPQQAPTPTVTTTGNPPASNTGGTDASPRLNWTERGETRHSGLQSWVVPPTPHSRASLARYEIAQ

[3] = test system: Mycobacterium tuberculosis; assay: Antibacterial activity against Mycobacterium tuberculosis H37Ra after […] by resazurin reduction assay; assay type: functional
[4] = target: Glycogen synthase kinase-3 beta (Homo sapiens, UniProt P49841); assay: Inhibition of recombinant GSK3beta (unknown origin) using HSSPHQ(Sp)EDEEE as substrate by pyruvate kinase-lactate dehydrogenase coupled assay
Glycogen synthase kinase-3 beta, sequence (P49841 whole entry): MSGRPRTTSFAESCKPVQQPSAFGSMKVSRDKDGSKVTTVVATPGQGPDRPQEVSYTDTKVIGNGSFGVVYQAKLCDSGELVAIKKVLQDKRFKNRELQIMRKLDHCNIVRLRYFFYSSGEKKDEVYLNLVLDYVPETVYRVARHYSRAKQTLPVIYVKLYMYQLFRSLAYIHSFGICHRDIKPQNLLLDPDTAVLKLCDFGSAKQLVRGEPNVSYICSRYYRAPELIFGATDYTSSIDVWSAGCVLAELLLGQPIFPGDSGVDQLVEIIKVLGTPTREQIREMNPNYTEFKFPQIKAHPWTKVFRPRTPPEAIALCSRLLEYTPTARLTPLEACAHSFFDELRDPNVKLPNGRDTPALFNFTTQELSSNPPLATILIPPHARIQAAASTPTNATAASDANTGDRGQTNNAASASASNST

CDK2/Cyclin A2 = CDK2/Cyclin A2 (Homo sapiens, UniProt P24941); assay: Inhibition of recombinant CDK2/cyclin A (unknown origin) using MAHHRSPRKRAKKK as substrate by pyruvate kinase-lactate dehydrogenase coupled assay; assay type: protein-complex assay
[5] = target: Proto-oncogene tyrosine-protein kinase Src (Homo sapiens, UniProt P12931); assay: Inhibition of recombinant SRC (unknown origin) using polyE4Y as substrate by pyruvate kinase-lactate dehydrogenase coupled assay
Proto-oncogene tyrosine-protein kinase Src, sequence (P12931 2-536 limits assumed): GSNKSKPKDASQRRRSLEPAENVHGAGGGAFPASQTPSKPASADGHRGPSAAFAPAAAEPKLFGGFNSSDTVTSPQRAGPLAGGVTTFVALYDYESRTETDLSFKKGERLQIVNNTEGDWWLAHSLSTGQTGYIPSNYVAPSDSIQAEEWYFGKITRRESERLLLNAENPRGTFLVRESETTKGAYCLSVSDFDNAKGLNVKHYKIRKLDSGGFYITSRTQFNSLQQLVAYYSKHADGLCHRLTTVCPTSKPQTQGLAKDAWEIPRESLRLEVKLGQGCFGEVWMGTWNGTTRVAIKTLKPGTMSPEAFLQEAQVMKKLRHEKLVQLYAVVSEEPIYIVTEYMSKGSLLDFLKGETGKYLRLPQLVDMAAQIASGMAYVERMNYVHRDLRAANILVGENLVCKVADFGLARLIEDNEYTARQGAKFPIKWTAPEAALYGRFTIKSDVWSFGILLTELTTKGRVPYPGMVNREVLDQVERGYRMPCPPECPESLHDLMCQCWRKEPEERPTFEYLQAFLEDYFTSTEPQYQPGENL

[6] = Selectivity ratio of Ki for recombinant CDK2/cyclin A (unknown origin) to Ki for Mycobacterium tuberculosis PknB (M1 to G279 residues)

Row | Compound | Ki [1] | Ki [2] | also measured
1 | Cc1ccc2nc(N3CCCCCC3)nc(Nc3cc(C4CC4)[nH]n3)c2c1 | 98 nM | > 33000 nM | –
2 | NS(=O)(=O)c1ccc(-c2ncc(Cl)c(Nc3cc(C4CC4)[nH]n3)n2)cc1 | 13 nM | 2900 nM | MIC90 [3]: > 100 µM
3 | Clc1ccc2nc(N3CCNCC3)nc(Nc3cc(C4CC4)[nH]n3)c2c1 | 990 nM | – | –
4 | Fc1ccc2nc(N3CCCCCC3)nc(Nc3cc(C4CC4)[nH]n3)c2c1 | 81 nM | > 33000 nM | –
5 | NS(=O)(=O)c1cccc(-c2ncc(Cl)c(Nc3cc(C4CC4)[nH]n3)n2)c1 | 17 nM | < 8 nM | MIC90 [3]: 8.3 µM (≈ 3.24 µg/mL)
6 | OCc1cccc(-c2nc(Nc3cc(C4CC4)[nH]n3)c3cc(Cl)ccc3n2)c1 | 23 nM | 2300 nM | –
7 | NC(=O)c1cccc(-c2nc(Nc3cc(C4CC4)[nH]n3)c3cc(Cl)ccc3n2)c1 | 15 nM | > 4000 nM | –
8 | N#Cc1ccc(-c2nc(Nc3cc(C4CC4)[nH]n3)c3ccccc3n2)cc1 | 46 nM | – | Ki [4]: 70 nM; Ki (CDK2/Cyclin A2): 140 nM; Ki [5]: 18 nM
9 | CC(=O)N1CCCN(c2nc(Nc3cc(C4CC4)[nH]n3)c3cc(Cl)ccc3n2)CC1 | 150 nM | – | –
10 | Clc1ccc2nc(N3CCCNCC3)nc(Nc3cc(C4CC4)[nH]n3)c2c1 | 960 nM | – | –
11 | NC(=O)c1ccc(-c2nc(Nc3cc(C4CC4)[nH]n3)c3cc(Cl)ccc3n2)cc1 | 29 nM | > 4000 nM | –
12 | NS(=O)(=O)c1ccc(-c2nc(Nc3cc(C4CC4)[nH]n3)c3cc(Cl)ccc3n2)s1 | < 1 nM | < 8 nM | –
13 | O=C(c1ccccc1)N1CCN(c2nc(Nc3cc(C4CC4)[nH]n3)c3cc(Cl)ccc3n2)CC1 | 310 nM | – | –
14 | NS(=O)(=O)c1cccc(-c2nc(Nc3cc(C4CC4)[nH]n3)c3cc(Cl)ccc3n2)c1 | 6 nM | < 8 nM | –
15 | Clc1ccc2nc(N3CCCOCC3)nc(Nc3cc(C4CC4)[nH]n3)c2c1 | 150 nM | – | –
16 | N#CCc1cccc(-c2nc(Nc3cc(C4CC4)[nH]n3)c3cc(Cl)ccc3n2)c1 | 38 nM | – | –
17 | CC(C)N1CCN(c2nc(Nc3cc(C4CC4)[nH]n3)c3cc(Cl)ccc3n2)CC1 | 1400 nM | – | –
18 | N#Cc1cccc(-c2nc(Nc3cc(C4CC4)[nH]n3)c3ccccc3n2)c1 | 40 nM | – | Ki [4]: 9 nM; Ki (CDK2/Cyclin A2): 11 nM; Ki [5]: 22 nM

Row | Compound | Ki [1] | Ki [2] | also measured
19 | NS(=O)(=O)c1ccc(-c2nccc(Nc3cc(C4CC4)[nH]n3)n2)s1 | 4 nM | 18 nM | MIC90 [3]: 4.2 µM (≈ 1.52 µg/mL); Ki (CDK2/Cyclin A2): 7 nM; Ratio Ki [6]: 2
20 | COc1ccc2nc(N3CCCCCC3)nc(Nc3cc(C4CC4)[nH]n3)c2c1 | 82 nM | > 33000 nM | –
21 | Cc1cnc(-c2ccc(S(N)(=O)=O)s2)nc1Nc1cc(C2CC2)[nH]n1 | 4 nM | 18 nM | MIC90 [3]: 4.7 µM (≈ 1.77 µg/mL)
22 | CN1CCN(c2nc(Nc3cc(C4CC4)[nH]n3)c3cc(Cl)ccc3n2)CCC1=O | 310 nM | – | –
23 | N#CCc1ccc(-c2nc(Nc3cc(C4CC4)[nH]n3)c3cc(Cl)ccc3n2)cc1 | 5 nM | > 4000 nM | –
24 | Clc1ccc2nc(-c3ccccc3)nc(Nc3cc(C4CC4)[nH]n3)c2c1 | 60 to 69 nM | > 4000 nM | –
25 | N#Cc1cccc(-c2nc(Nc3cc(C4CC4)[nH]n3)c3cc(Cl)ccc3n2)c1 | 50 nM | > 4000 nM | Ki [4]: > 4000 nM; Ki (CDK2/Cyclin A2): 750 nM; Ki [5]: 200 nM
26 | N#Cc1ccc(-c2nc(Nc3cc(C4CC4)[nH]n3)c3cc(Cl)ccc3n2)cc1 | 88 nM | > 4000 nM | Ki [4]: 190 nM; Ki (CDK2/Cyclin A2): 170 nM; Ki [5]: 710 nM
27 | NS(=O)(=O)c1ccc(-c2ncc(F)c(Nc3cc(C4CC4)[nH]n3)n2)s1 | < 1 nM | 12 nM | MIC90 [3]: 3.1 µM (≈ 1.18 µg/mL)
28 | NC(=O)Cc1ccc(-c2nc(Nc3cc(C4CC4)[nH]n3)c3cc(Cl)ccc3n2)cc1 | 23 nM | 1800 nM | –
29 | NS(=O)(=O)c1ccc(-c2ncc(Cl)c(Nc3cc(C4CC4)[nH]n3)n2)s1 | < 1.3 nM | 9 nM | MIC90 [3]: 6.25 µM (≈ 2.48 µg/mL); Ki (CDK2/Cyclin A2): 17 nM; Ratio Ki [6]: > 13
30 | Cc1cnc(-c2ccc(S(N)(=O)=O)s2)nc1Nc1cc(C2CC2)n(C)n1 | > 4000 nM | > 4000 nM | MIC90 [3]: > 100 µM
31 | Clc1ccc2nc(N3CCCCCC3)nc(Nc3cc(C4CC4)[nH]n3)c2c1 | 150 nM | > 33000 nM | MIC90 [3]: 33 µM (≈ 12.6 µg/mL)
32 | NS(=O)(=O)c1ccc(-c2nc(Nc3cc(C4CC4)[nH]n3)c3cc(Cl)ccc3n2)cc1 | 24 nM | 22 nM | –
33 | Clc1ccc2nc(NC3CCC3)nc(Nc3cc(C4CC4)[nH]n3)c2c1 | 72 nM | – | –
34 | O=C1CCN(c2nc(Nc3cc(C4CC4)[nH]n3)c3cc(Cl)ccc3n2)CCN1 | 190 nM | – | –
35 | COC(=O)N1CCCN(c2nc(Nc3cc(C4CC4)[nH]n3)c3cc(Cl)ccc3n2)CC1 | 230 nM | – | –
